# Laboratory results taken from PMC12535076, “Neurotherapeutic effects of Vutiglabridin as a Paraoxonase-2 modulator in preclinical models of Parkinson’s disease” (Molecular Neurodegeneration, 2025).
# Values joined by “and” are separate entries in the source; they are usually repeats but may differ in a detail not shown here. Equal values may be shown once.
# What was measured:
# [1] = biological target: T1, recombinant human PON2 (rePON2) (Homo sapiens, UniProt Q15165); experiment: Mass spectrometry-based binding assay; details: 10 nM Vuti incubated with rePON2 0-500 nM for 30 min, LC-MS/MS; read-out: dissociation constant (Kd)
# T1 construct: made in house; host or cells: E. coli BL21 (DE3), pET21b
# T1 sequence (Q15165 1-354 isoform Q15165-1): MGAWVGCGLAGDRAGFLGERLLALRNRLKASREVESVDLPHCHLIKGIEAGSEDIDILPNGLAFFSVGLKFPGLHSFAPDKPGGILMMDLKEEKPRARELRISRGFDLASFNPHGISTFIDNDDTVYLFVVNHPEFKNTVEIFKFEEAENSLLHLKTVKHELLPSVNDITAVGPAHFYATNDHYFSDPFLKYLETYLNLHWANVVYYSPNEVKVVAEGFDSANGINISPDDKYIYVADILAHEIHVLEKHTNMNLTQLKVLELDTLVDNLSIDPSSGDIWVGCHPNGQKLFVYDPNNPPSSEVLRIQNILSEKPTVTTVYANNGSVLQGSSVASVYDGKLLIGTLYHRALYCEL
# Source text: The codon-optimization of HsPON2 was for Escherichia coli system and synthesized according to the full-length open reading frame (GenBank accession No. AAC41995.1) from National Center for Biotechnology Information (NCBI; http://www.ncbi.nlm.nih.gov). The HsPON2 gene was amplified by a standard PCR method with a primer set (Forward; 5’-[…]-3’, Reverse; 5’-[…]-3’) and inserted into an expression vector (pET21b; New England Biolabs, USA) using NdeI and XhoI restriction enzyme sites (underlined). […] The recombinant construct was transformed into E. coli BL21 (DE3) competent cells. The transformed cells were activated overnight and transferred to 1 L of LB broth (BD bioscience, USA) with 100 µg/mL ampicillin (Duchefa Biochemie, The Netherlands) containing 0.1% glucose, and then incubated at 37 ℃ and 200 rpm in incubator (Vision Scientific, Korea) until reaching the optical density of 0.6–0.8 at 600 nm (OD600). […] The eluted HsPON2 protein was analyzed by a 12% SDS-PAGE and concentrated up to approximately 1 mL by 10 kDa filter-size amicon (Merck Millipore, USA). […]
# The method followed the concept of previously established protocol. […] The supernatant, which now contains rePON2-bound Vuti, was collected, dried, and re-suspended in acetonitrile, and the drug quantification was performed via LC-MS/MS analysis.
# Sprague-Dawley rats = experiment: Functional observational battery (FOB) evaluation; assay type: in vivo, rat; details: male SD rats, single oral 500, 1000, 2000 mg/kg; 0.5, 1, 3, 6, 24 h
# Experimental: To further investigate the potential neurotoxicity of Vuti in vivo, a standard functional observational battery (FOB) evaluation was performed. Male Sprague-Dawley rats were administered single high doses of Vuti – 500, 1000, and 2000 mg/kg. Subsequently, two observers blindly scored the behavior of animals in the home cage, open field, hand-held, and sensory-motor function at time points of 0.5, 1, 3, 6, and 24 h.
# Male 6-week-old Sprague-Dawley Rat was orally administered with 0, 500, 1000, or 2000 mg/kg of Vuti (n = 8 per group). Two observers performed blind observations following the standard guideline (3) at 0.5, 1-, 3-, 6-, and 24-hours post-dose on the basis of the pharmacokinetics parameters. […] NC = No change, NSC = No statistically significant change.
smiles,measurement,setting,value
"CCOc1ccc(C2COc3c(ccc4c3CCC(C)(C)O4)C2)c(O)c1 (centres unmarked) [Vuti, Vutiglabridin]",Kd,[1],78.9 nM and 78 nM
same,"behaviors in FOB (home cage, open field, hand-held, sensory-motor function)",Sprague-Dawley rats,did not induce statistically significant changes
